Laboratory results from PubChem BioAssay AID687022 (Broad Institute, 2013).
Activity calls are given as the source filed them.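 Rule for the calls: active = Fitted curve of melting temperature shift crosses the 1.0 threshold at or below the sample's highest valid tested concentration; inconclusive = Flat fit with activity 30 to 70, or invalid fit; inactive = Opposite direction, flat within 30, or no crossing.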

Molecular target: Fibroblast growth factor 22 (Homo sapiens) (UniProt Q9HCT0)
Test: FGF22 ligand-induced thermal stabilization – biophysical, thermal shift, cherry-pick, FGF22 synaptogenesis inhibitor project, dose response (AID 687022)
Conditions: recombinant FGF22 thermal shift, SYPRO orange melting

Chain of Fibroblast growth factor 22 (Homo sapiens) (Q9HCT0 whole entry, looked up): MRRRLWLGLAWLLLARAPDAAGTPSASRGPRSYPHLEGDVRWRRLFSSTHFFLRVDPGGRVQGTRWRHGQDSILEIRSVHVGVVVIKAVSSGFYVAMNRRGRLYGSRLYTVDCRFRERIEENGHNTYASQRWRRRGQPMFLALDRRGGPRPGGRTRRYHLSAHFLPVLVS

Point of comparison: O=c1ccc2nc3ccccc3sc-2c1, AbsAC1 (concentration giving Tm-shift threshold 1.0) 8.27 µM. Against it:
- Cc1cccc(S(=O)(=O)N2C[C@H](O)COC[C@H]3O[C@H](CC(=O)Nc4ccccc4)CC[C@@H]32)c1 — within 1.5-fold, 7.19 µM
- N#CC(C#N)=C1NC(N)=C(C#N)C(c2ccccc2)=C1C#N — 2.1-fold lower, 4.02 µM
- Cc1ccc(C(=O)Nc2nc(=O)n(C(=O)C3CC3)s2)cc1 — within 1.5-fold, 11.1 µM
- CCCOC(=O)c1ccc(Oc2cn[nH]c2-c2ccc(O)cc2O)cc1 — 2.2-fold higher, 18.6 µM
- C[C@@H]1CN([C@@H](C)CO)S(=O)(=O)c2ccc(C3=CCCC3)cc2O[C@@H]1CN(C)C(=O)Nc1ccc2c(c1)OCO2 — 2.4-fold higher, 20.2 µM
- COc1ccc(C#Cc2ccc3c(c2)O[C@H](CN(C)S(=O)(=O)c2ccccc2F)[C@@H](C)CN([C@@H](C)CO)S3(=O)=O)cc1 — 1.8-fold higher, 14.7 µM
- CNC(=S)N(Cc1ccc(OC)cc1)C1CC(=O)N(c2ccc(C(=O)OC)cc2)C1=O (stereo not given) — 2.4-fold lower, 3.43 µM
- CC1([N+](=O)[O-])COP(=O)(NC2CC2)OC1 (stereo not given) — within 1.5-fold, 8.33 µM
- CCOc1cc(C=NNC(=O)c2cccc(S(=O)(=O)N3CCCC3)c2)ccc1O — within 1.5-fold, 6.84 µM
- COc1cc(/C=N/NC(=O)CCn2c3ccccc3c3ccccc32)ccc1O — 1.9-fold higher, 15.9 µM
- O=[N+]([O-])c1cccc(S(=O)(=O)Nc2ccc(-c3ccc(N4CCOCC4)nn3)cc2)c1 — within 1.5-fold, 7.01 µM
- O=C(Nc1ccccc1)N1C[C@H]2[C@@H](c3ccccc31)[C@@H](CO)N2C(=O)c1ccncc1 — 5-fold higher, 41.2 µM
- CCOC(=O)c1ccc(S(=O)(=O)Nc2cc(C(=O)O)ccc2Cl)cc1 — 3.2-fold higher, 26.2 µM
- O=C(N/N=C/c1ccncc1)c1cccc(NC(=O)c2ccc(Cl)cc2)c1 — within 1.5-fold, 9.27 µM
- O=C(Nc1cc(Cl)cc(Cl)c1)N[C@H]1CC[C@H](CCNS(=O)(=O)c2cccc(F)c2)O[C@@H]1CO — within 1.5-fold, 11 µM
- COc1ccc2cc(CCNC(=O)c3cc4ccccc4o3)c(=O)[nH]c2c1 — within 1.5-fold, 11.3 µM
- O=C(NNC(=O)c1ccccc1F)c1ccc(NS(=O)(=O)c2ccc(F)cc2)cc1 — 2.2-fold higher, 18.2 µM
- O=[N+]([O-])c1ccc(S(=O)(=O)Nc2nnc(C(F)(F)F)s2)cc1 — 1.8-fold lower, 4.67 µM
- O=C(Nc1cc(Cl)cc(Cl)c1)N[C@@H]1CC[C@@H](CCNS(=O)(=O)c2cccc(F)c2)O[C@@H]1CO — within 1.5-fold, 5.64 µM
- COc1ccc(C)cc1NS(=O)(=O)c1ccc(NS(=O)(=O)c2ccc(NC(C)=O)cc2)cc1 — 2.2-fold lower, 3.7 µM
- COc1cc(/C=N/NC(=O)c2cc3ccccc3[nH]2)ccc1O — 5.6-fold lower, 1.49 µM
- O=S(=O)(Nc1cccc(-n2cnnn2)c1)c1ccc(Cl)cc1 — 3.3-fold higher, 27.6 µM
- C[C@H](CO)N1C[C@H](C)[C@H](CN(C)C(=O)Nc2ccc(C(F)(F)F)cc2)Oc2cc(-c3ccncc3)ccc2S1(=O)=O — within 1.5-fold, 10.3 µM
- COc1ccc(NS(=O)(=O)c2ccc(Cl)c(N)c2)cc1Br — 2-fold lower, 4.09 µM
- CC(=O)Nc1ccc(S(=O)(=O)Nc2nc3ccc([N+](=O)[O-])cc3s2)cc1 — 2.8-fold higher, 23 µM
- Cc1[nH]c2ccc(C(=O)OCC(=O)Nc3cccc(S(N)(=O)=O)c3)cc2c1C — 2.9-fold lower, 2.86 µM
- O=C(N/N=C/c1ccsc1)c1c[nH]c2ccccc12 — 2.2-fold higher, 17.9 µM
- COc1ccc2nc(NC(=O)CCc3cc(OC)c(OC)c(OC)c3)sc2c1 — 2.3-fold higher, 19.3 µM
- COc1ccc(N(CC(=O)N/N=C/c2ccc(OC)c(OC)c2)S(=O)(=O)c2ccccc2)cc1 — 2.2-fold higher, 18.5 µM
- COc1cccc(NC(=O)N(C)C[C@H]2Oc3cc(-c4ccccc4F)ccc3S(=O)(=O)N([C@@H](C)CO)C[C@H]2C)c1 — 1.6-fold lower, 5.23 µM
- CCCCNC(=O)c1onc(CSc2ccc(F)c(F)c2)c1C(=O)NCCCC — 8.9-fold lower, 0.929 µM
- COc1cccc(NC(=O)CN(C)C(=O)c2ccc(N3CCCCC3)c([N+](=O)[O-])c2)c1 — within 1.5-fold, 11.4 µM
- CCOc1ccc(N2C(=O)C(CC(=O)Nc3ccccc3)N(Cc3ccccn3)C2=S)cc1 (stereo not given) — 2-fold lower, 4.24 µM
- Nc1nonc1-n1nnc(C(=O)N/N=C/c2cccnc2)c1CSc1ccc(Cl)cc1 — 2.4-fold lower, 3.46 µM
- COc1ccc(NC(=O)c2[nH]ncc2[N+](=O)[O-])cc1 — 2.2-fold higher, 17.9 µM
- COc1cccc(NC(=O)N(C)C[C@H]2Oc3cc(-c4ccccc4F)ccc3S(=O)(=O)N([C@H](C)CO)C[C@@H]2C)c1 — within 1.5-fold, 8.76 µM
- COc1cccc(C#Cc2ccc([C@H]3[C@H]4CN(S(=O)(=O)c5ccccc5C)CC(=O)N4[C@H]3CO)cc2)c1 — 2-fold higher, 16.6 µM
- O=C(N/N=C/c1ccc(O)cc1)c1cccc(N/N=C/c2ccc(O)cc2)c1 — within 1.5-fold, 5.77 µM
- COc1ccc(Nc2nc3ccc(OC)cc3s2)cc1 — 2.8-fold lower, 2.95 µM
- CC(=O)c1c(C)nc(-c2ccc(OCC(=O)Nc3cccc(C)c3C)cc2)n1O — 3.6-fold higher, 29.7 µM
- O=C(O)c1ccccc1Nc1ccc([N+](=O)[O-])cc1 — 2-fold higher, 16.2 µM
- O=C(N/N=C/c1c[nH]c2ccc(Br)cc12)c1ccc2c(c1)OCO2 — 1.7-fold higher, 14.3 µM
- O=[N+]([O-])c1ccc2nc(-c3ccccc3)[nH]c2c1 — 2.1-fold lower, 3.88 µM
- COc1cc(NC(=O)C2CCC(CNS(=O)(=O)c3csc(C(N)=O)c3)CC2)cc(OC)c1 (stereo not given) — within 1.5-fold, 5.8 µM
- O=C(COc1ccc([N+](=O)[O-])cc1)Nc1cccc(C(=O)Nc2ccccc2C(=O)O)c1 — 2.2-fold lower, 3.74 µM
- COc1nsnc1NS(=O)(=O)c1ccc(NC(=S)NC(=O)c2cccnc2)cc1 — within 1.5-fold, 8.95 µM
- CN(NC1OC(=O)c2ccccc21)c1ncc(C(F)(F)F)cc1Cl (stereo not given) — 3.5-fold higher, 29.3 µM
- C[C@@H]1CN([C@H](C)CO)S(=O)(=O)c2ccc(-c3ccncc3)cc2O[C@@H]1CN(C)C(=O)Nc1ccc(C(F)(F)F)cc1 — 1.9-fold higher, 15.3 µM
- CCNC(=O)C[C@@H]1CC[C@H]2[C@H](COc3ccc(NC(=O)Nc4ccc(Cl)cc4)cc3C(=O)N2C)O1 — within 1.5-fold, 6.25 µM
- O=C(Nc1cccnc1)c1ccc(NS(=O)(=O)c2cccc([N+](=O)[O-])c2)cc1 — within 1.5-fold, 8.48 µM
- COc1ccccc1NS(=O)(=O)c1cc(C(=O)Nc2ccc(S(=O)(=O)Nc3onc(C)c3C)cc2)ccc1C — 1.9-fold lower, 4.31 µM
- O=C(CCc1ccc(O)cc1)c1c(O)cc(O)cc1O — 4.8-fold lower, 1.74 µM
- C[C@@H]1CN([C@@H](C)CO)C(=O)Cc2cc(NC(=O)C3CC3)ccc2O[C@H]1CN(C)Cc1ccc(Cl)c(Cl)c1 — 2-fold higher, 16.7 µM
- CC(C)(C)c1ccc(C2CC2C(=O)N/N=C\c2ccc[nH]2)cc1 (stereo not given) — 1.7-fold higher, 14.3 µM
- O=C(N/N=C/c1ccc(Cl)cc1)c1ccc2nc[nH]c2c1 — 2.8-fold lower, 2.95 µM
- COc1ccc(-c2cn(CC[C@H]3CC[C@H](NC(=O)Nc4ccc(F)cc4)[C@@H](CO)O3)nn2)cc1 — 2.2-fold higher, 18 µM
- COc1ccc2c(CC(=O)NNC(=O)c3ccc(O)cc3)coc2c1 — 2.6-fold lower, 3.22 µM
- O=C(Cc1n[nH]c(=O)[nH]c1=O)N/N=C/c1c(O)ccc2ccccc12 — within 1.5-fold, 9.89 µM
- COc1cc(NC(=O)c2csc(N)n2)cc(C(=O)Nc2cccc(C(F)(F)F)c2)c1 — within 1.5-fold, 10.3 µM
- Cc1[nH]c2ccccc2c1/C=N/NC(=O)c1cccc(F)c1 — within 1.5-fold, 9.79 µM
- COc1cc(NC(=O)c2cnc(N)o2)cc(C(=O)Nc2cccc(C(F)(F)F)c2)c1 — 2.4-fold lower, 3.44 µM
- O=C(N/N=C/c1ccc[nH]1)c1cc2ccccc2cc1O — 2.6-fold lower, 3.23 µM
- Cc1cc(C)cc(NS(=O)(=O)c2cc3[nH]c(=O)c(=O)[nH]c3cc2C)c1 — within 1.5-fold, 10.2 µM
- C/C=C/c1ccc2c(c1)O[C@@H](CN(C)C(=O)Nc1ccc(F)cc1)[C@@H](C)CN([C@H](C)CO)S2(=O)=O — 1.8-fold higher, 14.8 µM
- COc1cccc(NC(=O)N(C)C[C@@H]2Oc3cc(-c4ccccc4F)ccc3S(=O)(=O)N([C@H](C)CO)C[C@@H]2C)c1 — 4.1-fold lower, 2.04 µM
- COc1ccc(C(=O)Nc2nc(CC(=O)NCCc3ccccc3)cs2)cc1 — within 1.5-fold, 11.3 µM
- C[C@H](CO)N1C[C@H](C)[C@H](CN(C)C(=O)Nc2ccc3c(c2)OCO3)Oc2cc(C3=CCCCC3)ccc2S1(=O)=O — 2.5-fold higher, 20.3 µM
- COc1ccc(/C(O)=C/C(=O)C(=O)NNC(=O)c2ccccc2)cc1 — 3.8-fold higher, 31.6 µM
- Cc1ccc(NC(=O)c2ccc(OCc3c(C)noc3C)cc2)c(C)c1 — 3.2-fold lower, 2.58 µM
- C[C@@H]1CN([C@H](C)CO)S(=O)(=O)c2ccc(-c3ccc(F)cc3)cc2O[C@@H]1CN(C)C(=O)Nc1ccccc1F — 2.7-fold higher, 22.1 µM
- CCN1C/C(=C/c2cccs2)c2nc3ccccc3c(C(=O)O)c2C1 — 2.7-fold lower, 3.02 µM
- C[C@@H]1CN([C@@H](C)CO)S(=O)(=O)c2ccc(-c3ccncc3)cc2O[C@@H]1CN(C)C(=O)Nc1ccc(C(F)(F)F)cc1 — 4.2-fold lower, 1.96 µM
- O=C1C(=O)C(c2ccccc2)C(=O)C1c1ccccc1 (stereo not given) — within 1.5-fold, 10.7 µM

With COc1ccc(NC(=O)N[C@H]2CC[C@@H](CCn3cc(-c4ccc(OC)cc4)nn3)O[C@@H]2CO)cc1 the AbsAC1 (concentration giving Tm-shift threshold 1.0) was > 42 µM (inactive).
In the case of CC1(C(=O)NS(=O)(=O)Cc2cccc(Cl)c2)CCN1C(=O)C1(c2ccc(Cl)cc2)CCC1 (stereo not given), the AbsAC1 (concentration giving Tm-shift threshold 1.0) is reported as > 10 µM (inactive).
For O=C(C[C@H]1CC[C@H]2[C@@H](COC[C@H](O)CN2Cc2ccccc2)O1)NCCc1ccccc1, the AbsAC1 (concentration giving Tm-shift threshold 1.0) was > 38 µM (inactive).
For CSc1nc2nc(Cl)c(Cl)nc2[nH]1, the AbsAC1 (concentration giving Tm-shift threshold 1.0) was > 38 µM (inactive).
With CC(C)C#Cc1cnc2c(c1)C(=O)N([C@@H](C)CO)C[C@@H](C)[C@H](CN(C)C(=O)c1cnccn1)O2 the AbsAC1 (concentration giving Tm-shift threshold 1.0) was > 38 µM (inactive).
O=C(O)C[C@@H]1C[C@H]2c3cc(NC(=O)Nc4ccc(C(F)(F)F)cc4)ccc3O[C@H]2[C@@H](CO)O1 was tested, and the AbsAC1 (concentration giving Tm-shift threshold 1.0) was > 10 µM (inactive).
